One data set relates to osteoblast MC3TC-E1. The data set is described as follows: Safety in osteoblasts. Type of data set: cell-based, Mouse. The conditions noted are these: 0.1 μM, 1 μM, 10 μM and 100 μM. As for the experimental part: The safety of the present peptides was determined using osteoblast MC3TC-E1. Osteoblasts were treated with A7-1 peptide as prepared in Example 1 at the concentration of 0.1 μM, 1 μM, 10 μM and 100 μM. Then the effect of the present peptide on the proliferation (FIG. 8A), viability (FIG. 8B) and differentiation (FIG. 8C) on the cells was examined. For testing the effect on the […], MC3T3-E1 and C2C12 cell lines were treated with BMP (rhBMP2, 10 ng/ml for 3 days) and differentiation medium for bone formation for 6 days to induce differentiation. The results were examined by cell staining. It is observed that the present peptide has no effect on the proliferation rate, viability rate or whether or not the cells are differentiated.

Data set [1] relates to anchorage dependent cells MC3T3-E1. The data set is described as follows: Comparative experiment with soluble RGDS, CCK-8. The note with it: RGDS 0, 10, 100 and 1000 μM. Type of data set: cell-based, Mouse. As for the experimental part:
The present peptide A7-1(10 μM) or A7-1 together with soluble RGDS peptide (0, 10, 100 and 1000 μM) for competition assay were added to anchorage dependent cells MC3T3-E1 in a test tube and incubated for 10 min. Then the cells were transferred to a culture plate and incubated for 10 min in a thermostatic incubator to allow the cells to attach. After 10 min, the medium was removed and the cells were washed 2 times with PBS to remove any unattached cells and a fresh medium without the peptide and CCK-8 (Dojindo) were added to the cells and incubated for 1 hr in a thermostatic incubator. Then the absorbance was measured at 450 nm. The medium mixed with CCK-8 only was used as a blank.

Entries after “also recorded” stand apart in the source; their conditions may differ. Residues, ends and D or L forms follow the SMILES beside them.

For `CC(C)C[C@H](NC(=O)[C@H](CCC(N)=O)NC(=O)[C@@H](N)CCCNC(=N)N)C(=O)N[C@H](C(=O)N[C@H](C(=O)N[C@@H](CCCCN)C(=O)N[C@@H](Cc1ccccc1)C(=O)N[C@@H](CCCNC(=N)N)C(=O)N[C@@H](C)C(=O)N[C@@H](CC(C)C)C(=O)N1CCC[C@H]1C(=O)N[C@@H](CS)C(=O)O)C(C)C)C(C)C` [A7-1, RQLVVKFRALPC] (H-RQLVVKFRALPC-OH), in the data set on osteoblast MC3TC-E1, the effect on differentiation entry is reported as “no effect”, the “effect on proliferation rate” value was “no effect” and the “effect on viability rate” value is listed as “no effect”.
As to RGDS, the “cell adhesiveness with RGDS in the absence of A7-1” value in data set [1] was “decreased in a concentration dependent manner; also recorded: significantly reduces the adhesiveness”.

The record behind these values is patent US10857258B2, “Adhesive peptide and use therefor” (SEWON BIOTECHNOLOGY INC., priority 2015, dated 2020).
